According to patent US11919965B2, “Methods of treating multiple myeloma with bispecific anti-BCMA x anti-CD3 antibodies” (Regeneron Pharmaceuticals, Inc., priority 2019, dated 2024):

Columns and labels:
[1] = test system: Jurkat/NFATLuc.3C7 reporter cells with HEK293 cells (BCMA negative); assay: Jurkat/NFATLuc reporter bioassay (T-cell activation); type: cell-based, human
Experimental: (§1) Activity of the anti-BCMA×anti-CD3 bispecific antibodies were assessed in a Jurkat/NFATLuc reporter bioassay utilizing several cell lines with varying levels of BCMA surface expression. The Jurkat cells were engineered to express an NFAT-luciferase reporter (Jurkat/NFATLuc.3C7), and 50,000 Jurkat reporter cells were combined with 50,000 BCMA positive (Daudi, MM1-S, NCI-H929, OPM-2, RPMI-8226, MOLP-8, or Raji) or BCMA negative (HEK293) cells in Thermo Nunclon delta 96 well white microwell plates (Thermo Scientific, Cat #136102) in 50 ul of assay media (RPMI media with 10% FBS and 1% P/S/G). Three-fold serial dilutions of the BCMA×CD3 bispecific antibodies (mAb25441D or mAb25442D), or a bivalent anti-BCMA antibody (mAb21581) were immediately added in 50 uL of assay buffer. The plates were gently agitated and incubated in a 37° C., 5% CO2 incubator for 4-6 hours. NFAT-Luciferase activity was determined using Promega One-Glo (Cat #E6130) and a Perkin Elmer Envision plate reader. RLU were plotted in GraphPad Prism using a four-parameter logistic equation over a 12-point response curve to calculate EC50 values. The no antibody treatment condition for each dose-response curve is also included in the analysis as a continuation of the three-fold serial dilution and is represented as the lowest dose. The signal to noise (S:N) is determined by taking the ratio of the highest RLU on the curve to the lowest.

[2] = test system: Jurkat/NFATLuc.3C7 reporter cells with MM1-S cells (BCMA positive); assay: as above; type: cell-based, human
Experimental: as §1

[3] = test system: Jurkat/NFATLuc.3C7 reporter cells with RPMI-8226 cells (BCMA positive); assay: as above; type: cell-based, human
Experimental: as §1

[4] = test system: Jurkat/NFATLuc.3C7 reporter cells with Raji cells (BCMA positive); assay: as above; type: cell-based, human
Experimental: as §1

[5] = test system: BCMA-expressing NCI-H929 multiple myeloma tumors; assay: Xenogenic tumor model, NCI-H929 + human PBMC s.c. in NSG mice, treatment from implantation (Example 10); type: in vivo, mouse; settings: 4 mg/kg
Experimental: To determine the in vivo efficacy of BCMA×CD3 bispecific antibodies (Abs), a xenogenic tumor study was performed. Immunodeficient NOD.Cg-Prkdc^scidII2rgtm1Wjl/SzJ (NSG) mice were subcutaneously implanted with a mixture of 10×10^6 BCMA-expressing NCI-H929 multiple myeloma cells and 0.5×10^6 human peripheral blood mononuclear cells (PBMC) isolated from a normal donor. […] The mice were administered Abs twice per week for a total of three weeks, and tumor growth was assessed over 40 days. While BCMA^+ tumors grew similarly in the vehicle-, isotype control-, and CD3-binding control-treated mice, both BCMA×CD3 Abs that were tested prevented the growth of tumors in vivo.
Implantation and measurement of syngeneic tumors: NSG mice were subcutaneously implanted with a mixture of 10×10^6 BCMA-expressing NCI-H929 multiple myeloma cells and 0.5×10^6 PBMC derived from a normal donor. […] The mice were administered Abs twice per week for a total of three weeks. Tumor growth was measured with calipers twice per week for the duration of the experiment. Mice were sacrificed 40 days after tumor implantation.
Calculation of syngeneic tumor growth and inhibition: In order to determine tumor volume by external caliper, the greatest longitudinal diameter (length in mm) and the greatest transverse diameter (width in mm) were determined. Tumor volumes based on caliper measurements were calculated by the formula: Volume (mm^3)=(length× width^2)/2.

[6] = test system: BCMA-expressing NCI-H929 multiple myeloma tumors; assay: Xenogenic tumor model, NCI-H929 + human PBMC s.c. in NSG mice, dose response, treatment from implantation (Example 11); type: in vivo, mouse
Experimental: To determine the in vivo efficacy of anti-BCMA×anti-CD3 bispecific antibodies (Abs), a xenogenic tumor study was performed. Immunodeficient NOD.Cg-Prkdc^ScidII2rg^tm1Wjl/SzJ (NSG) mice were subcutaneously implanted with a mixture of 10×10^6 BCMA-expressing NCI-H929 human multiple myeloma tumor cells and 0.5×10^6 human peripheral blood mononuclear cells (PBMC) isolated from a normal, healthy donor. […] The mice were administered these Abs twice per week for a total of seven doses, and tumor growth was assessed over 60 days. While BCMA+NCI-H929 tumors grew similarly in the vehicle- and CD3-binding control-treated mice, both anti-BCMA×anti-CD3 Abs that were tested prevented the growth of tumors in a dose-dependent manner in vivo.
Implantation and measurement of xenogenic tumors: NSG mice were subcutaneously implanted with a mixture of 10×10^6 BCMA-expressing NCI-H929 multiple myeloma cells and 0.5×10^6 PBMC derived from a normal, healthy donor. […] The mice were administered Abs twice per week for a total of seven doses. Tumor growth was measured with calipers twice per week for the duration of the experiment.
Calculation of xenogenic tumor growth and inhibition: In order to determine tumor volume by external caliper, the greatest longitudinal diameter (length in mm) and the greatest transverse diameter (width in mm) were determined. Tumor volumes based on caliper measurements were calculated by the formula: Volume (mm^3)=(length× width^2)/2.

REGN5458: anti-BCMA×anti-CD3 bispecific antibody: mAb21581 BCMA heavy chain, mAb7221G CD3 heavy chain and common light chain; SEQ ID NOs 126, 127, 129
S:N (highest RLU to lowest) [1]: 1
S:N (highest RLU to lowest) [2]: 165
S:N (highest RLU to lowest) [3]: 55
S:N (highest RLU to lowest) [4]: 123
Average Tumor Size (mm3) ± SEM on Day 4 [5]: 39.5 ± 9.1 mm3
Average Tumor Size (mm3) ± SEM on Day 7 [5]: 0 ± 0 mm3
Average Tumor Size (mm3) ± SEM on Day 11 [5]: 0 ± 0 mm3
Average Tumor Size (mm3) ± SEM on Day 14 [5]: 0 ± 0 mm3
Average Tumor Size (mm3) ± SEM on Day 18 [5]: 0 ± 0 mm3
Average Tumor Size (mm3) ± SEM on Day 21 [5]: 0 ± 0 mm3
Average Tumor Size (mm3) ± SEM on Day 28 [5]: 0 ± 0 mm3
Average Tumor Size (mm3) ± SEM on Day 40 [5]: 0 ± 0 mm3
Average Tumor Size (mm3) ± SEM on Day 7 ([6]; 0.04 mg/kg): 30.8 ± 5.5 mm3
Average Tumor Size (mm3) ± SEM on Day 12 ([6]; 0.04 mg/kg): 71.5 ± 22.4 mm3
Average Tumor Size (mm3) ± SEM on Day 15 ([6]; 0.04 mg/kg): 133.4 ± 50.9 mm3
Average Tumor Size (mm3) ± SEM on Day 19 ([6]; 0.04 mg/kg): 413.7 ± 162.7 mm3
Average Tumor Size (mm3) ± SEM on Day 22 ([6]; 0.04 mg/kg): 669.4 ± 248.5 mm3
Average Tumor Size (mm3) ± SEM on Day 26 ([6]; 0.04 mg/kg): 1167.0 ± 431.7 mm3
Average Tumor Size (mm3) ± SEM on Day 29 ([6]; 0.04 mg/kg): 1781.8 ± 620.7 mm3
Average Tumor Size (mm3) ± SEM on Day 4 ([6]; 0.4 mg/kg): 31.9 ± 2.0 mm3
Average Tumor Size (mm3) ± SEM on Day 7 ([6]; 0.4 mg/kg): 11.3 ± 3.0 mm3
Average Tumor Size (mm3) ± SEM on Day 15 ([6]; 0.4 mg/kg): 0 ± 0 mm3
Average Tumor Size (mm3) ± SEM on Day 19 ([6]; 0.4 mg/kg): 0 ± 0 mm3
Average Tumor Size (mm3) ± SEM on Day 22 ([6]; 0.4 mg/kg): 0 ± 0 mm3
Average Tumor Size (mm3) ± SEM on Day 26 ([6]; 0.4 mg/kg): 0 ± 0 mm3
Average Tumor Size (mm3) ± SEM on Day 29 ([6]; 0.4 mg/kg): 0 ± 0 mm3
Average Tumor Size (mm3) ± SEM on Day 34 ([6]; 0.4 mg/kg): 0 ± 0 mm3
Average Tumor Size (mm3) ± SEM on Day 39 ([6]; 0.4 mg/kg): 0 ± 0 mm3
Average Tumor Size (mm3) ± SEM on Day 42 ([6]; 0.4 mg/kg): 0 ± 0 mm3
Average Tumor Size (mm3) ± SEM on Day 46 ([6]; 0.4 mg/kg): 0 ± 0 mm3
Average Tumor Size (mm3) ± SEM on Day 55 ([6]; 0.4 mg/kg): 0 ± 0 mm3
Average Tumor Size (mm3) ± SEM on Day 60 ([6]; 0.4 mg/kg): 0 ± 0 mm3
Average Tumor Size (mm3) ± SEM on Day 4 ([6]; 4 mg/kg): 18.0 ± 1.2 mm3
Average Tumor Size (mm3) ± SEM on Day 12 ([6]; 4 mg/kg): 0 ± 0 mm3
Average Tumor Size (mm3) ± SEM on Day 15 ([6]; 4 mg/kg): 0 ± 0 mm3
Average Tumor Size (mm3) ± SEM on Day 19 ([6]; 4 mg/kg): 0 ± 0 mm3
Average Tumor Size (mm3) ± SEM on Day 22 ([6]; 4 mg/kg): 0 ± 0 mm3
Average Tumor Size (mm3) ± SEM on Day 26 ([6]; 4 mg/kg): 0 ± 0 mm3
Average Tumor Size (mm3) ± SEM on Day 29 ([6]; 4 mg/kg): 0 ± 0 mm3
Average Tumor Size (mm3) ± SEM on Day 34 ([6]; 4 mg/kg): 0 ± 0 mm3
Average Tumor Size (mm3) ± SEM on Day 39 ([6]; 4 mg/kg): 0 ± 0 mm3
Average Tumor Size (mm3) ± SEM on Day 42 ([6]; 4 mg/kg): 0 ± 0 mm3
Average Tumor Size (mm3) ± SEM on Day 46 ([6]; 4 mg/kg): 0 ± 0 mm3
Average Tumor Size (mm3) ± SEM on Day 55 ([6]; 4 mg/kg): 0 ± 0 mm3
Average Tumor Size (mm3) ± SEM on Day 60 ([6]; 4 mg/kg): 0 ± 0 mm3
